Reference: publication PMC4434089 (Biotechnology, Biotechnological Equipment, 2014)
Several values for one entry are separate records, joined by “and”; a condition that tells them apart may be missing. Identical values can stand only once. Like-named read-outs stand apart in the source and are kept apart here. Marks after values point to notes of the source that are not given here.

Tests used:
Aβ [1] = details: SPR, cited from earlier work
Excerpt: This was further supported by a recent SPR-based Aβ study that determined a ka of 0.01 complexes per second for Aβ association following first-order kinetics, whilst the kd wa ...

Aβ [2] = details: cited from earlier work
Excerpt: According to a model developed by Petkova et al.,[81] the 12-21 and 30-40 regions of the Aβ peptide form the β-she ...

full length amylin = system: full length amylin; set-up: method as in 2 sources, one per row (each row's own in cited_ref): ref 58 = [58]; PMID 14565847; doi:10.1042/BJ20030852; Jaikaran E Nilsson MR Clark A Biochem J. 2004 377 709 716 14565847 10.1042/BJ20030852 PMC1223903 ||| ref 68, 93 = [68]; PMID 12054816; doi:10.1016/S0022-2836(02)00164-X; Scrocchi LA Chen Y Waschuk S Wang F Cheung S Darabie AA McLaurin J Fraser PE J Mol Biol. 2002 318 697 706 12054816 10.1016/S0022-2836(02)00164-X || [93]; PMID 12648568; doi:10.1016/s1047-8477(02)00630-5; Scrocchi LA Ha K Chen Y Wu L Wang F Fraser PE J Struct Biol. 2003 141 218 227 http://dx.doi.org/10.1016/s1047-8477(02)00630-5 12648568 10.1016/s1047-8477(02)00630-5; details: cited from earlier work
amylin [3] = assay: NTA of amylin aggregation, alone or with amylin derivatives; type: biochemical, human; details: for implied effect on fibrillogenesis of amylin: NTA compared with previously published reports; for Concentration of aggregates 100–150 nm, 10 min / Concentration of aggregates 200–300 nm, 10 min / Concentration of aggregates 150–200 nm, 10 min / Concentration of aggregates 100–150 nm, 24 h / Concentration of aggregates 200–300 nm, 24 h / Concentration of aggregates 150–200 nm, 24 h: amylin 50 μmol L^−1 alone (A) or with 250 μmol L^−1 derivative, pH 7.4, duplicate; for Concentration of aggregates 100–150 nm, 10 min: 10 mmol L^−1 sodium phosphate, 50 mmol L^−1 NaCl; for Concentration of aggregates 100–150 nm, 10 min / Concentration of aggregates 150–200 nm, 10 min: p < 0.05 less than A: n1, n5, m5; for Concentration of aggregates 200–300 nm, 10 min: p < 0.05 less than A: n1, n3, n5, m1, m2, m3, m4, m5; for Concentration of aggregates 100–150 nm, 24 h: p < 0.05 less than A: n1, n2, m5, significantly more: m2; for Concentration of aggregates 200–300 nm, 24 h: p < 0.05 less than A: n1, n2, n3, n4, n5, m5; for Concentration of aggregates 150–200 nm, 24 h: p < 0.05 less than A: n1, n2, n5, m5; for number of 200–300 nm aggregates at 24 h vs amylin only: amylin:derivative 50:250 μmol L^−1, p < 0.05
Experimental: NTA measurements were performed with a NanoSight LM20 instrument (NanoSight, United Kingdom) equipped with a 640 nm laser and a temperature controlled sample chamber. […] The sample temperature was maintained at 37 °C for the entire duration of the experiment. These experimental conditions were similar to that used for a previously reported cytotoxicity experiment,[73] thus allowing correlation of results obtained from the two techniques. […] Once again, samples were maintained at 37 °C and 60 s video footage were recorded every 10 min for the first hour and then at 24 h. All videos were captured with the single shutter and gain modes. Analysis was performed using NanoSight NTA version 2.2 software with a viscosity setting of 0.70.

[4] = system: amylin-mediated cytotoxicity; set-up: method as in PMID 20093026; details: cited from earlier work
[5] = system: sensor chip-bound biotinylated amylin; set-up: method as in PMID 14565847; details: insulin over sensor chip-bound biotinylated amylin; cited from earlier work
amylin [6] = system: amylin; set-up: method as in 2 sources, ref 23 = [23]; PMID 9878384; doi:10.1006/jmbi.1998.2299; Goldsbury C Kistler J Aebi U Arvinte T Cooper GJS J Mol Biol. 1999 285 33 39 9878384 10.1006/jmbi.1998.2299 ||| ref 26 = [26]; PMID 9216085; doi:10.1006/jsbi.1997.3858; Goldsbury CS Cooper GJS Goldie KN Muller SA Saafi EL Gruijters WTM Misur MP J Struct Biol. 1997 119 17 27 http://dx.doi.org/10.1006/jsbi.1997.3858 9216085 10.1006/jsbi.1997.3858; details: cited from earlier work

## Aβ1–40: amyloid beta; SPR-derived kinetics were generated using the 1–40 form of Aβ
Aβ [1]; conditions similar to present study
  Aβ association rate: 0.01 complexes per second
Aβ [1]; global fit, first-order kinetic model
  Aβ dissociation kd: 0.00223 s⁻¹
Aβ [1]; printed spread ± 1.3 × 10^−4 s^−1
  Aβ dissociation kd: 0.00092 s⁻¹
Aβ [1]; ref 39 (by order of citation)
  Aβ dissociation time: 7.5 min
Aβ [1]; ref 80 (by order of citation)
  Aβ dissociation time: 18 min
Aβ [2]
  aggregation rate compared with 1–42 form of Aβ: aggregate much more slowly than the 1–42 form of Aβ

## NFGAIL [n4]
Full length amylin
  fibril formation of full length amylin in presence of derivative: fibril formation of full length amylin was enhanced
Amylin [3]
  implied effect on fibrillogenesis of amylin: increase fibrillogenesis of amylin to an aggregate that is larger than 1000 nm
Amylin [3]; NTA, 10 min, 37 °C
  Concentration of aggregates 100–150 nm, 10 min: 3.8 ×10^7 aggregates/mL
  Concentration of aggregates 200–300 nm, 10 min: 5.1 ×10^7 aggregates/mL
  Concentration of aggregates 150–200 nm, 10 min: 2.3 ×10^7 aggregates/mL
Amylin [3]; NTA, 10 min, amylin:derivative 50:250 μmol L^−1, unpaired t-test
  concentrations of 100–150, […]–200 and 200–300 nm aggregates at 10 min vs amylin only: not significantly different
Amylin [3]; NTA, 37 °C
  Concentration of aggregates 100–150 nm, 24 h: 1.7 ×10^7 aggregates/mL
  Concentration of aggregates 200–300 nm, 24 h: 1.7* ×10^7 aggregates/mL
  Concentration of aggregates 150–200 nm, 24 h: 1.8 ×10^7 aggregates/mL
Amylin [3]; NTA
  number of 200–300 nm aggregates at 24 h vs amylin only: significantly lower than in samples containing amylin only
[4]
  reduction of amylin-mediated cytotoxicity: more than 40%

## insulin: insulin, binding to sensor chip-bound biotinylated amylin
Full length amylin
  effect on fibril formation: inhibit fibril formation
[5]
  response change during binding to biotinylated amylin: 15 RUs

## Amylin: chemically synthesized full-length human amylin, 37 amino acid long peptide (KCNTATCATQRLANFLVHSSNNFGAILSSTNVGSNTY; Islet amyloid polypeptide; UniProt P10997 34-70, looked up) [reference compound]
Amylin [3]; NTA correlated to cytotoxicity data, suggested
  critical concentration of 200–300 nm aggregates for amylin-mediated cytotoxicity: more than 2.1 × 10^7 aggregates per millilitre
Amylin [3]; NTA correlated to previously published cytotoxicity (ref 73), tentatively suggested
  size of toxic species of amylin: 200–300 nm
Amylin [3]; NTA, 10 min, 37 °C
  Concentration of aggregates 100–150 nm, 10 min: 5.7 ×10^7 aggregates/mL
  Concentration of aggregates 200–300 nm, 10 min: 7.0 ×10^7 aggregates/mL
  Concentration of aggregates 150–200 nm, 10 min: 5.4 ×10^7 aggregates/mL
Amylin [3]; NTA, 37 °C
  Concentration of aggregates 100–150 nm, 24 h: 2.9 ×10^7 aggregates/mL
  Concentration of aggregates 200–300 nm, 24 h: 2.7 ×10^7 aggregates/mL
  Concentration of aggregates 150–200 nm, 24 h: 2.5 ×10^7 aggregates/mL
Amylin [3]; NTA, amylin 50 μmol L^−1 alone, 37 °C, pH 7.4, over 24 h
  predominant aggregate size: 150–200 nm and 200–300 nm
Amylin [3]; NTA, amylin alone
  completion of aggregation: complete aggregation of amylin occurs within the first hour
Amylin [3]; NTA, amylin alone, stable up until 24 h
  concentration of 100–150, […]–200 and 200–300 nm aggregates after the first hour: 2.5 × 10^7 – 3.0 × 10^7 aggregates per millilitre
Amylin [3]; initial NTA, 50 μmol L^−1 amylin
  total concentration of aggregates: 3.12 × 10^8 aggregates per millilitre
Amylin [6]; AFM
  amylin growth rate (AFM): 1.1 nm/min
Amylin [6]; STEM
  mass-per-length (MPL) of amylin protofibril: 10 kDa nm^−1
Amylin [6]; estimated from literature AFM and STEM values
  approximate rate of amylin aggregation: ~11 kDa min^−1

## FLVHSS [n3]
Full length amylin
  fibril formation of full length amylin in presence of derivative: fibril formation of full length amylin was enhanced
Amylin [3]
  implied effect on fibrillogenesis of amylin: increase fibrillogenesis of amylin to an aggregate that is larger than 1000 nm
Amylin [3]; NTA, 10 min, 37 °C
  Concentration of aggregates 100–150 nm, 10 min: 2.0 ×10^7 aggregates/mL
  Concentration of aggregates 200–300 nm, 10 min: 1.4* ×10^7 aggregates/mL
  Concentration of aggregates 150–200 nm, 10 min: 1.2 ×10^7 aggregates/mL
Amylin [3]; NTA, 37 °C
  Concentration of aggregates 100–150 nm, 24 h: 3.4 ×10^7 aggregates/mL
  Concentration of aggregates 200–300 nm, 24 h: 1.9* ×10^7 aggregates/mL
  Concentration of aggregates 150–200 nm, 24 h: 2.1 ×10^7 aggregates/mL
Amylin [3]; NTA
  number of 200–300 nm aggregates at 24 h vs amylin only: significantly lower than in samples containing amylin only
Amylin [3]; NTA, all size ranges, amylin:derivative 50:250 μmol L^−1, vs amylin only
  effect on amylin aggregation over 24 h: small amount of aggregates of all size ranges which increases only marginally over 24 h
[4]
  reduction of amylin-mediated cytotoxicity: more than 40%

## TQRLA* [m2]
Amylin [3]; NTA, 10 min, 37 °C
  Concentration of aggregates 100–150 nm, 10 min: 3.9 ×10^7 aggregates/mL
  Concentration of aggregates 200–300 nm, 10 min: 2.6* ×10^7 aggregates/mL
  Concentration of aggregates 150–200 nm, 10 min: 2.4 ×10^7 aggregates/mL
Amylin [3]; NTA, 37 °C
  Concentration of aggregates 100–150 nm, 24 h: 3.6** ×10^7 aggregates/mL
  Concentration of aggregates 200–300 nm, 24 h: 4.6 ×10^7 aggregates/mL
  Concentration of aggregates 150–200 nm, 24 h: 7.9 ×10^7 aggregates/mL
Amylin [3]; NTA, similar to or more than amylin only
  concentration of 200–300 nm aggregates, with derivative: ≥ 2.7 × 10^7 aggregates per millilitre
[4]
  inhibitory effect on amylin-mediated cytotoxicity: not to have an inhibitory effect on amylin-mediated cytotoxicity
